Assay results from patent US9604940B2 (Chroma Therapeutics Ltd., priority 2012, dated 2017).

Legend:
CSF1R (FMS) = biological target: T1, CSF1R (FMS) (Homo sapiens, UniProt P07333); assay: CSF1R (FMS) kinase activity, Z'-LYTE biochemical assay (Invitrogen); conditions: ATP at or close to Km, 60 minute reaction at room temperature, read-out: Inhibitor activity versus CSF-1
T1 construct: purchased Invitrogen (Paisley, UK)
Protocol: CSF1R (FMS) Kinase Activity
The ability of compounds to inhibit CSF1R (FMS) kinase activity was measured in an assay performed by Invitrogen (Paisley, UK). The Z′-LYTE™ biochemical assay employs a fluorescence-based, coupled-enzyme format and is based on the differential sensitivity of phosphorylated and non-phosphorylated peptides to proteolytic cleavage. The peptide substrate is labelled with two fluorophores—one at each end—that make up a FRET pair. In the primary reaction, the kinase transfers the gamma-phosphate of ATP to a single […] residue in a synthetic FRET-peptide. In the secondary reaction, a site-specific protease recognizes and cleaves non-phosphorylated FRET-peptides. Phosphorylation of FRET-peptides suppresses cleavage by the Development Reagent. Cleavage disrupts FRET between the donor (i.e. coumarin) and acceptor (i.e. fluorescein) fluorophores on the FRET-peptide, whereas uncleaved, phosphorylated FRET-peptides maintain FRET. A […] method, which calculates the ratio (the Emission Ratio) of donor emission to acceptor emission after excitation of the donor fluorophore at 400 nm, is used to quantitate reaction progress.
The final 10 μL Kinase Reaction consists of 0.12-12.3 ng CSF1R (FMS), 2 μM Tyr 01 Peptide and ATP in 50 mM HEPES pH 7.5, 0.01% BRIJ-35, 10 mM MgCl2, 1 mM EGTA. The assay is performed at an ATP concentration at, or close to, the Km. After the 60 minute Kinase Reaction incubation at room temperature, 5 μL of a 1:256 dilution of Development Reagent is added. The assay plate is incubated for a further 60 minutes at room temperature and read on a fluorescence plate reader.
Duplicate data points are generated from a ⅓ log dilution series of a stock solution of test compound in DMSO. Nine dilutions steps are made from a top concentration of 10 mM, and a ‘no compound’ blank is included. Data is collected and analysed using XLfit software from IDBS. The dose response curve is curve fitted to model number 205 (sigmoidal dose-response model). From the curve generated, the concentration giving 50% inhibition is determined and reported.

MCP-1 = assay: MCSF-stimulation of human whole blood, MCP-1 levels by sandwich ELISA; type: cell-based; conditions: inhibitor 2 hours before MCSF 50 ng/ml, 22 hrs, MCP-1 in cell-free supernatants, read-out: Inhibitor activity versus MCP-1
Protocol: Macrophage Colony-Stimulating Factor (MCSF)-Stimulation of Human Whole Blood
Whole blood was taken by venous puncture using heparinised vacutainers (Becton Dickinson) and diluted in an equal volume of RPMI1640 tissue culture media (Sigma). 100 μl was plated in V-bottomed 96 well tissue culture treated plates. 2 hours after the addition of the inhibitor in 100 μl of RPMI1640 media, the blood was stimulated with MCSF (Peprotech: #300-25-10 uG) at a final concentration of 50 ng/ml and incubated at 37° C. in 5% CO2 for 22 hrs. MCP-1 levels were measured from cell-free supernatants by sandwich ELISA developed from MCP-1/CCL2 Duoset (R&D Systems #DY279). Additional reagents required for ELISA were purchased from Sigma, (BSA: A3059, 10×PBS: D1408, Tween20: P5927) R&D Systems, (colour reagent: #DY999 and stop solution: #DY994) and Costar (96-well EIA plates: #2592). Assays were carried out following the manufacturer's instructions with the following modifications: Cell-free supernatants were diluted 30:70 in reagent diluent before assay. All incubations except capture antibody were carried out with shaking at 550 rpm. 3 washes were carried out between steps, and incubation times were blocking 1.5 hr, sample/standard and detection antibody incubations 2 hr, HRP incubation 30 min, colour development 20 min. • IC50 values were allocated to one of five ranges as follows: • Range A: IC50<100 nM • Range B: 100 nM<IC50<300 nM • Range C: 300 nM<1050<1000 nM • Range D: 1000 nM<IC50<5000 nM • Range E: IC50>5000 nM • NT=not tested

T1 sequence (P07333 20-972): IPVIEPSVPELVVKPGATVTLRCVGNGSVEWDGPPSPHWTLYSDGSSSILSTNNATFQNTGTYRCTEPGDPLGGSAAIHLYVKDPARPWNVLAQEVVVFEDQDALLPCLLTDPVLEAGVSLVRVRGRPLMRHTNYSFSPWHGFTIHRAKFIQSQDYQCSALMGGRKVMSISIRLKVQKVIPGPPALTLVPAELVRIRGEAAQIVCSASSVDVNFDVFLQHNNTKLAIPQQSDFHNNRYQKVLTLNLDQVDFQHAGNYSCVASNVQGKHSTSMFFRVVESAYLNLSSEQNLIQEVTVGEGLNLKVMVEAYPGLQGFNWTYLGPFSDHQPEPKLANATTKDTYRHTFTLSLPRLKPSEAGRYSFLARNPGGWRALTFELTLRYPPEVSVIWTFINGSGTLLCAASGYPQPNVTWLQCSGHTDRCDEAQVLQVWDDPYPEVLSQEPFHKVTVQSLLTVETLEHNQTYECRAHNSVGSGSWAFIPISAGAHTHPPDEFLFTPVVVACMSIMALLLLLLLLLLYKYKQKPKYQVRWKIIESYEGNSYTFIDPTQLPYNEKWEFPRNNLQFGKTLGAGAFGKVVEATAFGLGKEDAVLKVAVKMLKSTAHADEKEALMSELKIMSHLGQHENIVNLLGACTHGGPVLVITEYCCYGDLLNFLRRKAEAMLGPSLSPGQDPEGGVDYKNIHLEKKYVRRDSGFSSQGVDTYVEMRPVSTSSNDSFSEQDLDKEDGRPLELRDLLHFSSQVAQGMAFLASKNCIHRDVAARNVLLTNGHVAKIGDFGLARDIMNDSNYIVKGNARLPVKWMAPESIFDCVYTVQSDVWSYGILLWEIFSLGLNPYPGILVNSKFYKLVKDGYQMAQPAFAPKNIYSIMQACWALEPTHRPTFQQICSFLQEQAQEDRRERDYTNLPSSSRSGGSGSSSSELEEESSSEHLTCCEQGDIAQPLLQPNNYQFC

Structure (SMILES)	IC50 (CSF1R (FMS))	IC50 (MCP-1)
Nc1ncc(-c2ccc(CNC3CCN[C@@H](C(=O)OC4CCCC4)C3)cc2)nc1NCc1c(F)cccc1F (stereo partly drawn) [Example 14, Cyclopentyl (2R)-4-[(4-{5-amino-6-[(2,6-difluorobenzyl)amino]pyrazin-2-yl}benzyl)amino]piperidine-2-carboxylate di-formate]	100 to 300 nM	300 to 1000 nM
CCc1cc(-c2cnc(N)c(NCc3c(Cl)cccc3Cl)n2)ccc1CN1CCNC(C(=O)OC2CCCC2)C1 (stereo not drawn) [Example 20, Cyclopentyl 4-(4-{5-amino-6-[(2,6-dichlorobenzyl)amino]pyrazin-2-yl}-2-ethylbenzyl)piperazine-2-carboxylate]	1000 to 5000 nM	< 100 nM
CC(C)(C)OC(=O)[C@H]1CC(NCc2ccc(-c3cnc(N)c(NCc4c(Cl)cccc4Cl)n3)cc2)CCN1 (stereo partly drawn) [Example 21, tert-Butyl (2R)-4-[(4-{5-amino-6-[(2,6-dichlorobenzyl)amino]pyrazin-2-yl}benzyl)amino]piperidine-2-carboxylate]	< 100 nM	300 to 1000 nM
CC(C)(C)OC(=O)[C@@H]1CC(NCc2ccc(-c3cnc(N)c(NCc4c(Cl)cccc4Cl)n3)cc2)CCN1 (stereo partly drawn) [Example 22, tert-Butyl (2S)-4-[(4-{5-amino-6-[(2,6-dichlorobenzyl)amino]pyrazin-2-yl}benzyl)amino]piperidine-2-carboxylate]	< 100 nM	300 to 1000 nM
CC(C)(C)OC(=O)C1CN(Cc2ccc(-c3cnc(N)c(NCc4c(Cl)cccc4Cl)n3)cc2)CCN1 (stereo not drawn) [Example 23, tert-Butyl 4-(4-{5-amino-6-[(2,6-dichlorobenzyl)amino]pyrazin-2-yl}benzyl)piperazine-2-carboxylate]	300 to 1000 nM	300 to 1000 nM
CC(C)(C)OC(=O)[C@H]1CC(NCc2ccc(-c3cnc(N)c(NCc4c(Cl)cccc4Cl)n3)cc2Cl)CCN1 (stereo partly drawn) [Example 25, tert-Butyl (2R)-4-[(4-{5-amino-6-[(2,6-dichlorobenzyl)amino]pyrazin-2-yl}-2-chlorobenzyl)amino]piperidine-2-carboxylate]	100 to 300 nM	300 to 1000 nM
Cc1cc(-c2cnc(N)c(NCc3c(Cl)cccc3Cl)n2)ccc1CNC1CCN[C@@H](C(=O)OC(C)(C)C)C1 (stereo partly drawn) [Example 26, tert-Butyl (2R)-4-[(4-{5-amino-6-[(2,6-dichlorobenzyl)amino]pyrazin-2-yl}-2-methylbenzyl)amino]piperidine-2-carboxylate]	< 100 nM	300 to 1000 nM
CCN(Cc1ccc(-c2cnc(N)c(NCc3c(Cl)cccc3Cl)n2)cc1)C1CCN[C@@H](C(=O)OC(C)(C)C)C1 (stereo partly drawn) [Example 30, tert-Butyl (2R)-4-[(4-{5-amino-6-[(2,6-dichlorobenzyl)amino]pyrazin-2-yl}benzyl)(ethyl)amino]piperidine-2-carboxylate]	100 to 300 nM	100 to 300 nM
CC(C)(C)OC(=O)[C@H]1CC(NC(=O)c2cccc(-c3cnc(N)c(NCc4c(Cl)cccc4Cl)n3)c2)CCN1 (stereo partly drawn) [Example 33, tert-Butyl (2R)-4-[(3-{5-amino-6-[(2,6-dichlorobenzyl)amino]pyrazin-2-yl}benzoyl)amino]piperidine-2-carboxylate]	100 to 300 nM	1000 to 5000 nM
CC(C)C[C@H](NCc1cccc(-c2cnc(N)c(NCc3c(Cl)cccc3Cl)n2)c1)C(=O)OC1CCCC1 [Example 38, Cyclopentyl N-(3-{5-amino-6-[(2,6-dichlorobenzyl)amino]pyrazin-2-yl}benzyl)-L-leucinate]	> 5000 nM	> 5000 nM
CC(C)C[C@H](NCc1cccc(-c2cnc(N)c(NCc3c(Cl)cccc3Cl)n2)c1)C(=O)OC(C)(C)C [Example 39, tert-Butyl N-(3-{5-amino-6-[(2,6-dichlorobenzyl)amino]pyrazin-2-yl}benzyl)-L-leucinate]	> 5000 nM	> 5000 nM

Next, values leading:

IC50 (CSF1R (FMS))	IC50 (MCP-1)	Structure (SMILES)
100 to 300 nM	100 to 300 nM	Nc1ncc(-c2ccc(CNC3CCN[C@@H](C(=O)OC4CCCC4)C3)c(Cl)c2)nc1NCc1c(Cl)cccc1Cl (stereo partly drawn) [Example 18, Cyclopentyl (2R)-4-[(4-{5-amino-6-[(2,6-dichlorobenzyl)amino]pyrazin-2-yl}-2-chlorobenzyl)amino]piperidine-2-carboxylate]
< 100 nM	< 100 nM	Cc1cc(-c2cnc(N)c(NCc3c(Cl)cccc3Cl)n2)ccc1CNC1CCN[C@@H](C(=O)OC2CCCC2)C1 (stereo partly drawn) [Example 19, Cyclopentyl (2R)-4-[(4-{5-amino-6-[(2,6-dichlorobenzyl)amino]pyrazin-2-yl}-2-methylbenzyl)amino]piperidine-2-carboxylate]
100 to 300 nM	< 100 nM	CCN(Cc1ccc(-c2cnc(N)c(NCc3c(Cl)cccc3Cl)n2)cc1)C1CCN[C@@H](C(=O)OC2CCCC2)C1 (stereo partly drawn) [Example 27, Cyclopentyl (2R)-4-[(4-{5-amino-6-[(2,6-dichlorobenzyl)amino]pyrazin-2-yl}benzyl)(ethyl)amino]piperidine-2-carboxylate]
100 to 300 nM	< 100 nM	CN(Cc1ccc(-c2cnc(N)c(NCc3c(Cl)cccc3Cl)n2)cc1)C1CCN[C@@H](C(=O)OC2CCCC2)C1 (stereo partly drawn) [Example 28, Cyclopentyl (2R)-4-[(4-{5-amino-6-[(2,6-dichlorobenzyl)amino]pyrazin-2-yl}benzyl)(methyl)amino]piperidine-2-carboxylate]
100 to 300 nM	< 100 nM	CC(=O)N(Cc1ccc(-c2cnc(N)c(NCc3c(Cl)cccc3Cl)n2)cc1)C1CCN[C@@H](C(=O)OC2CCCC2)C1 (stereo partly drawn) [Example 31, Cyclopentyl (2R)-4-[acetyl(4-{5-amino-6-[(2,6-dichlorobenzyl)amino]pyrazin-2-yl}benzyl)amino]piperidine-2-carboxylate]
100 to 300 nM	1000 to 5000 nM	Nc1ncc(-c2cccc(C(=O)NC3CCN[C@@H](C(=O)OC4CCCC4)C3)c2)nc1NCc1c(Cl)cccc1Cl (stereo partly drawn) [Example 32, Cyclopentyl (2R)-4-[(3-{5-amino-6-[(2,6-dichlorobenzyl)amino]pyrazin-2-yl}benzoyl)amino]piperidine-2-carboxylate]
< 100 nM	100 to 300 nM	Nc1ncc(-c2cccc(CNC3CCN[C@@H](C(=O)OC4CCCC4)C3)c2)nc1NCc1c(Cl)cccc1Cl (stereo partly drawn) [Example 34, Cyclopentyl (2R)-4-[(3-{5-amino-6-[(2,6-dichlorobenzyl)amino]pyrazin-2-yl}benzyl)amino]piperidine-2-carboxylate]
< 100 nM	300 to 1000 nM	Nc1ncc(-c2cccc(CNC3CCN[C@H](C(=O)OC4CCCC4)C3)c2)nc1NCc1c(Cl)cccc1Cl (stereo partly drawn) [Example 35, Cyclopentyl (2S)-4-[(3-{5-amino-6-[(2,6-dichlorobenzyl)amino]pyrazin-2-yl}benzyl)amino]piperidine-2-carboxylate di-formate]
300 to 1000 nM	100 to 300 nM	Nc1ncc(-c2cccc(CN3CCN[C@H](C(=O)OC4CCCC4)C3)c2)nc1NCc1c(Cl)cccc1Cl [Example 36, Cyclopentyl (2S)-4-(3-{5-amino-6-[(2,6-dichlorobenzyl)amino]pyrazin-2-yl}benzyl)piperazine-2-carboxylate]
300 to 1000 nM	< 100 nM	Nc1ncc(-c2cccc(CN3CCN[C@@H](C(=O)OC4CCCC4)C3)c2)nc1NCc1c(Cl)cccc1Cl [Example 37, Cyclopentyl (2R)-4-(3-{5-amino-6-[(2,6-dichlorobenzyl)amino]pyrazin-2-yl}benzyl)piperazine-2-carboxylate]
